{"source": "ChEMBL document CHEMBL1127643", "about": "“Mechanism-based design, synthesis, and in vitro antimalarial testing of new 4-methylated trioxanes structurally related to artemisinin: the importance of a carbon-centered radical for antimalarial activity” (J Med Chem, 1994)", "key": {"Plasmodium falciparum [1]": {"tested_on": "Plasmodium falciparum", "assay": "In vitro antimalarial activity against Plasmodium falciparum D6 Africa", "type": "functional, organism-based"}, "Plasmodium falciparum [2]": {"tested_on": "Plasmodium falciparum", "assay": "In vitro antimalarial activity against Plasmodium falciparum W-2 Indochina", "type": "functional, organism-based"}}, "data": [{"smiles": "CO[C@H]1O[C@]2(C)OO[C@]13[C@H](CCOCc1ccccc1)CCC[C@@H]3CC2(C)C", "values": [{"measurement": "IC50", "setting": "Plasmodium falciparum [1]", "result": "> 500", "unit": "ng/mL"}, {"measurement": "IC50", "setting": "Plasmodium falciparum [2]", "result": "> 500", "unit": "ng/mL"}]}, {"smiles": "CO[C@H]1O[C@]2(C)OO[C@]13[C@H](CCO)CCC[C@@H]3C[C@@H]2C", "values": [{"measurement": "IC50", "setting": "Plasmodium falciparum [1]", "result": 3.5, "unit": "ng/mL"}, {"measurement": "IC50", "setting": "Plasmodium falciparum [2]", "result": 4.5, "unit": "ng/mL"}]}, {"smiles": "CO[C@H]1O[C@]2(C)OO[C@]13[C@H](CCO)CCC[C@@H]3CC2(C)C", "values": [{"measurement": "IC50", "setting": "Plasmodium falciparum [1]", "result": "> 500", "unit": "ng/mL"}, {"measurement": "IC50", "setting": "Plasmodium falciparum [2]", "result": "> 500", "unit": "ng/mL"}]}, {"smiles": "CO[C@H]1O[C@]2(C)OO[C@]13[C@H](CCO)CCC[C@@H]3C[C@H]2C", "values": [{"measurement": "IC50", "setting": "Plasmodium falciparum [1]", "result": "> 500", "unit": "ng/mL"}, {"measurement": "IC50", "setting": "Plasmodium falciparum [2]", "result": "> 500", "unit": "ng/mL"}]}, {"smiles": "C[C@@H]1CC[C@H]2[C@@H](C)C(=O)O[C@@H]3O[C@@]4(C)CC[C@@H]1[C@]32OO4", "note": "[ARTEMISININ]", "values": [{"measurement": "IC50", "setting": "Plasmodium falciparum [1]", "result": 8, "unit": "ng/mL"}, {"measurement": "IC50", "setting": "Plasmodium falciparum [2]", "result": 8, "unit": "ng/mL"}]}]}
